Source: US20030144269A1, “Reducing pulse pressures and vascular stiffness in hypertensive patients by administering a vasopeptidase inhibitor” (priority 2001, published 2003)

Tests used:
[1] = system: patients with systolic or mixed systolic-diastolic hypertension; experiment: Double-blind 12-week comparison of omapatrilat and enalapril: trough pulsatile hemodynamics (cuff pressure, arterial tonometry, Doppler flow); assay type: in vivo, human; conditions: for Brachial pressures: Systolic pressure: trough (24 h after last dose), titrated to 80 mg omapatrilat or 40 mg enalapril; for Brachial pressures: Systolic pressure / PfPb Temporal overlap / Augmentation index / Brachial pressures: Diastolic pressure / Brachial pressures: Mean pressure / Brachial pressures: Pulse pressure / Carotid-femoral PWV / Carotid-radial PWV / Central hemodynamics: Heart rate / Central hemodynamics: Mean flow / Central hemodynamics: Peak flow / Central hemodynamics: Peripheral resistance (DSC) / Central hemodynamics: Pulse pressure / Central hemodynamics: Systolic pressure / Central stiffness parameters: Characteristic impedance (DSC) / Central stiffness parameters: First impedance modulus (DSC) / Central stiffness parameters: Proximal aortic compliance (CD) / End-systolic pressure / Forward wave, Pf / PbPf Amplitude ratio / Pressure at ti / Reflected wave arrival time, ti / Reflected wave, Pb / Systolic ejection period: mean ± SD; for PfPb Temporal overlap: % of systolic ejection period; for change in characteristic impedance / reduction in mean arterial pressure: change from baseline at 12 weeks; for change in characteristic impedance: only subjects with reduction in mean arterial pressure between 0 and −40 mmHg; for reduction in mean arterial pressure: only subjects with reduction in mean arterial pressure between 0 and −40 mmHg (68 omapatrilat, 59 enalapril); for changes in regional pulse wave velocities (carotid-femoral and carotid-radial) (FIG. 4): in vivo
Protocol: The following study was performed to compare treatment with the vasopeptidase inhibitor omapatrilat and the angiotensin converting enzyme inhibitor enalapril.
Study subjects. Male or female subjects age 18 years or older were eligible if they were in sinus rhythm and had systolic or mixed systolic-diastolic hypertension, defined as a seated systolic blood pressure ≧160 mmHg if newly diagnosed or ≧140 mmHg if currently treated and diastolic blood pressure ≦110 mmHG. Patients with known or suspected secondary forms of hypertension were excluded. Patients with a history of transient ischemic attacks within the prior 12 months or myocardial infarction or angina within the prior 6 months were excluded. All patients with heart failure, documented ejection fraction <45%, valvular heart disease or clinically significant peripheral vascular disease (bruit or diminished pulse in any of the brachial, radial, femoral or carotid arteries or blood pressure difference between upper extremities >6 mmHg) were excluded. Additional exclusion criteria included renal or renovascular disease, uncontrolled diabetes (glucose >200 mg/dl fasting or >220 mg/dL nonfasting), autoimmune disease, multiple drug allergies, bronchospastic disease requiring chronic medication. Laboratory exclusion criteria included hemoglobin <9 g/dl, platelet count <80,000/μl, white cell count <3000/μl, neutrophil count <1500/μl, serum potassium <3.5 or >5.2 mmol/L, alanine aminotransferase or aspartate aminotransferase greater than three times the upper limits of normal or serum creatinine >2.5 mg/dL. Failure to obtain a technically satisfactory baseline study, as determined by the core lab, was an exclusion criterion. If an initial baseline study had potentially remediable technical limitations, a repeat study was allowed within 2-9 days.
Treatment protocol: A single-blind placebo lead-in period of 1-2 weeks, during which the seated blood pressure was confirmed to be ≧160 mmHg and <200 mmHg and the diastolic pressure ≦110 mmHg, after withdrawl of antihypertensive medications, was followed by a double-blind active treatment period of 12 weeks. Baseline hemodynamic studies were performed at the end of the placebo lead-in period between 6:00 and 10:00 a.m. with the patient in a fasting state prior to taking morning medications and off all antihypertensive medications for at least 1 week. Patients were randomized within 2-9 days following an approved baseline study. Treatment was initiated with either 10 mg omapatrilat or 10 mg enalapril and was titrated at two and four weeks to doses of 40 then 80 mg omapatrilat or 20 then 40 mg enalapril. […] No concomitant antihypertensive medications were permitted during the study. A trough hemodynamic study, the primary endpoint of the trial was performed at the end of the active treatment period, 24 hours after the last prior dose of study medication, under identical conditions as the baseline study. Patients were then given one additional dose of study medication, which was followed 4 hours later by a final (peak) hemodynamic study. In order to focus on long-term effects of therapy, the primary endpoint of the study was prospectively defined as the trough change from baseline in pulsatile hemodynamics.
Hemodynamic data acquisition: Subjects were studied in the supine position after approximately 10 minutes of rest. Using a semi-automated computer-controlled device, auscultatory blood pressure was obtained 3-5 times at 2 minute intervals with a goal of obtaining 3 sequential readings that agreed to within 5 mmHg for systolic and diastolic. Arterial tonometry and ECG were obtained form the brachial, radial, femoral and carotid arteries using a custom transducer. Next, the patient was placed in the left lateral decubitus position and echocardiographic images of the left ventricular outflow tract were obtained from a parasternal long axis view. […]

[2] = system: patients who had left ventricular dysfunction and class II-IV congestive heart failure; conditions: cited from earlier work

Structure (SMILES)	shortening of the systolic ejection period ([1]; 12 weeks, trough)	Brachial pressures: Systolic pressure ([1]; 12 weeks) [mmHg]	PfPb Temporal overlap ([1]; 12 weeks, trough) [%]	Augmentation index ([1]; 12 weeks, trough) [%]	Brachial pressures: Diastolic pressure ([1]; 12 weeks, trough) [mmHg]	Brachial pressures: Mean pressure ([1]; 12 weeks, trough) [mmHg]	Brachial pressures: Pulse pressure ([1]; 12 weeks, trough) [mmHg]	Carotid-femoral PWV ([1]; 12 weeks, trough) [m/s]	Carotid-radial PWV ([1]; 12 weeks, trough) [m/s]	Central hemodynamics: Heart rate ([1]; 12 weeks, trough) [min⁻¹]	Central hemodynamics: Mean flow ([1]; 12 weeks, trough) [mL/s]	Central hemodynamics: Peak flow ([1]; 12 weeks, trough) [mL/s]	Central hemodynamics: Peripheral resistance (DSC) ([1]; 12 weeks, trough) [dyne × sec / cm^5]	Central hemodynamics: Pulse pressure ([1]; 12 weeks, trough) [mmHg]	Central hemodynamics: Systolic pressure ([1]; 12 weeks, trough) [mmHg]	Central stiffness parameters: Characteristic impedance (DSC) ([1]; 12 weeks, trough) [dyne × sec / cm^5]	Central stiffness parameters: First impedance modulus (DSC) ([1]; 12 weeks, trough) [dyne × sec / cm^5]	Central stiffness parameters: Proximal aortic compliance (CD) ([1]; 12 weeks, trough)	End-systolic pressure ([1]; 12 weeks, trough) [mmHg]	Forward wave, Pf ([1]; 12 weeks, trough) [mmHg]	further results
O=C(N[C@H]1CCS[C@H]2CCC[C@@H](C(=O)O)N2C1=O)[C@H](S)Cc1ccccc1 (relative stereo) [Omapatrilat, [4S-[4α(R*),7α,10aβ]]-octahydro-4-[(2-mercapto-1-oxo-3-phenylpropyl)amino]-5-oxo-7H-pyrido[2,1-b][1,3]thiazepine-7-carboxylic acid]	not seen	147 ± 20	64 ± 12	19 ± 13	76 ± 11	105 ± 13	71 ± 18	11.4 ± 3.1	10.1 ± 1.4	64 ± 9	73 ± 16	312 ± 68	1986 ± 449	71 ± 22	147 ± 24	208 ± 70	323 ± 119	0.53 ± 0.26^† 10^−5 cm^4 / dyne	114 ± 16	54 ± 16	PbPf Amplitude ratio ([1]; 12 weeks, trough): 47 ± 7%; Pressure at ti ([1]; 12 weeks, trough): 132 ± 20 mmHg; Reflected wave arrival time, ti ([1]; 12 weeks, trough): 116 ± 36 ms; Reflected wave, Pb ([1]; 12 weeks, trough): 25 ± 7 mmHg; Systolic ejection period ([1]; 12 weeks, trough): 320 ± 26 ms; peripheral resistance ([1]; 12 weeks, trough, versus enalapril): reduced more; amplitude of the forward pressure wave ([1]; 12 weeks, unchanged peak flow): markedly reduced; change in characteristic impedance adjusted for baseline mean arterial pressure and change in mean arterial pressure ([1]; 12 weeks, versus enalapril, P<0.05): remained significant; change in characteristic impedance [1]: −37±58 dyne×sec/cm^5; reduction in mean arterial pressure [1]: −13.8±7.4 mmHg; changes in central pulse pressure (FIG. 2) ([1]; compared to enalapril): greater reduction in the central pulse pressure compared to enalapril; change in peripheral (brachial) systolic, diastolic, and pulse pressure (FIG. 1) ([1]; compared to enalapril, p<0.05): greater reductions in all measurements; changes in regional pulse wave velocities (carotid-femoral and carotid-radial) (FIG. 4) [1]: reduced regional pulse wave velocity; arrival time of the reflected wave (FIG. 4) ([1]; p<0.05): delayed reflected wave arrival time; characteristic impedance, a direct measure of aortic stiffness (FIG. 3) ([1]; without a change in aortic flow): significantly reduced; carotid-femoral pulse wave velocity [2]: favorable trend toward reduction
CCOC(=O)[C@H](CCc1ccccc1)N[C@@H](C)C(=O)N1CCC[C@H]1C(=O)O [Enalapril, reference compound]	shortening of the systolic ejection period	155 ± 20	66 ± 8	21 ± 10	81 ± 10	111 ± 12	74 ± 20	11.9 ± 3.7	10.6 ± 1.8	63 ± 8	73 ± 16	314 ± 70	2122 ± 462	75 ± 23	156 ± 24	231 ± 94	352 ± 163	0.49 ± 0.28 10^−5 cm^4 / dyne	120 ± 14	58 ± 17	PbPf Amplitude ratio ([1]; 12 weeks, trough): 46 ± 8%; Pressure at ti ([1]; 12 weeks, trough): 139 ± 17 mmHg; Reflected wave arrival time, ti ([1]; 12 weeks, trough): 108 ± 25 ms; Reflected wave, Pb ([1]; 12 weeks, trough): 27 ± 8 mmHg; Systolic ejection period ([1]; 12 weeks, trough): 319 ± 27 ms; change in characteristic impedance [1]: −4±67 dyne×sec/cm^5; reduction in mean arterial pressure [1]: −12.0±8.1 mmHg; changes in regional pulse wave velocities (carotid-femoral and carotid-radial) (FIG. 4) [1]: reduced regional pulse wave velocity
